Source: BindingDB's records for doi:10.1016/j.bmc.2006.09.047 (Astellas Pharma, 2007)
pIC50: −log10 of the molar value.

Target: PI3-kinase p110α (Bos taurus)
Experiment: The test compounds and enzyme were mixed in buffer, and the substrate and [gamma-33P] ATP/ATP were added to the mixture to initiate the reaction. After allowing the reaction to proceed at room temperature for 120 min, wheat germ agglutinin-coated SPA beads (Amersham) was added. The mixture was left to stand for 5 min and then centrifuged. Radi
Details: pH 7.4

| pIC50 | Compound |
| --- | --- |
| < 4.52 | Cc1nc2ccc(Cl)cn2c1-c1ccn(S(=O)(=O)c2ccc([N+](=O)[O-])cc2)n1 [3-{6-chloro-2-methylimidazo[1,2-a]pyridin-3-yl}-1-[(4-nitrobenzene)sulfonyl]-1H-pyrazole] |
| 7.00 | Cc1ccc([N+](=O)[O-])cc1S(=O)(=O)n1ccc(-c2cnc3ccc(Cl)cn23)c1 [3-{6-chloroimidazo[1,2-a]pyridin-3-yl}-1-[(2-methyl-5-nitrobenzene)sulfonyl]-1H-pyrrole] |
